Measured values taken from PubChem BioAssay AID489032 (Sanford-Burnham Center for Chemical Genomics, 2010).
The source made the active and inactive calls. The rule behind the calls is not given here.

test system: UPR adaptive arm reporter cells, luciferase luminescence; test: activators of adaptive UPR signalling, dose response, cell-based, luciferase luminescence (AID 489032)

Row | EC50 | Compound
1 | > 80 µM (inactive) | CCc1nc(C)cn1S(=O)(=O)c1cc([N+](=O)[O-])ccc1Cl
2 | > 80 µM (inactive) | CC(C)c1ccc(/C=C/C(=O)Nc2nc3ccc([N+](=O)[O-])cc3s2)cc1
3 | > 80 µM (inactive) | O=C(NN1C(=O)/C(=C/c2ccc(O)c(O)c2)SC1=S)c1ccccc1
4 | > 80 µM (inactive) | CCOc1cc(/C=N/NC(N)=S)cc(Br)c1OCc1ccccc1C
5 | > 80 µM (inactive) | O=C(NCC1CC1)c1cccc2c1C(=O)c1ccc(-c3ccc(OC(F)(F)F)cc3)cc1S2(=O)=O
6 | > 80 µM (inactive) | N=c1n(CC(=O)c2ccc([N+](=O)[O-])cc2)c2ccccc2n1Cc1ccc(Cl)cc1
7 | > 80 µM (inactive) | CCOc1ccc(/C=C/C(O)=C2/C(=O)NC3(C)CC2c2ccccc2O3)cc1OC (centres undefined)
8 | > 80 µM (inactive) | N#CCC(=O)N/N=C/c1cn(Cc2cccc3ccccc23)c2ccccc12
9 | > 80 µM (inactive) | O=C(/C=C/c1ccccc1)NC(NC(=S)Nc1cccc(Cl)c1)C(Cl)(Cl)Cl (centres undefined)
10 | > 80 µM (inactive) | COc1cc(NC(=O)c2ccco2)c(C(=O)OCC(=O)c2c[nH]c3ccccc23)cc1OC
11 | 8.94 µM | CCOc1ccc(-n2c(C)cc(C(=O)CCl)c2C)cc1
12 | > 80 µM (inactive) | Cc1cc(C)c2c(n1)sc1c(-c3ccccc3)c(C#N)c(N)nc12
13 | 9.69 µM | Cc1ccc(Cc2cnc(NC(=O)/C(C#N)=C/c3ccc(-c4ccc([N+](=O)[O-])cc4)o3)s2)cc1
14 | 17.2 µM | CCOC(=O)c1nnn2c1nc(Nc1cccc(C(F)(F)F)c1)c1ccccc12
15 | > 80 µM (inactive) | COc1ccc2[nH]c3c(c2c1)CCN1C(=O)C(CC(=O)NC/C=C(\C)CCC=C(C)C)C[C@H](C(=O)N2CCOCC2)[C@@]31CCC1CCCC1 (some centres undefined)
16 | > 80 µM (inactive) | O=C(Oc1ccccc1/C=C\C(=O)c1cc2ccccc2o1)c1cccc(F)c1
17 | > 80 µM (inactive) | N#Cc1ccccc1NC(=O)COc1c(Br)cc(Br)c2cccnc12
18 | > 80 µM (inactive) | Clc1ccc(C2=Nn3c(nnc3-c3cc(-c4ccccc4)n[nH]3)SC2)cc1
19 | > 80 µM (inactive) | Cc1ccc2nc(N(CCCN(C)C)C(=O)c3ccc(S(=O)(=O)N4CCc5ccccc5C4)cc3)sc2c1
20 | > 80 µM (inactive) | CC1=CC(C)[C@H](/C=N/n2c(=O)[nH]c3c([nH]c4ccc(C)cc43)c2=O)C(C)C1 (some centres undefined)
21 | 17.7 µM | Cc1cc(NC(=O)c2cc(-c3ccncc3)nc3c(C)cccc23)no1
22 | > 80 µM (inactive) | COC(=O)c1ccc(COc2ccccc2/C=C(\C#N)C(=O)Nc2c(C)cccc2C)cc1

Row | EC50 | Compound
23 | > 80 µM (inactive) | CCOC(=O)/C(=N\Nc1ccc(C(C)=O)cc1)c1csc(Nc2ccccc2)n1
24 | 32.6 µM (inactive) | CCOC(=O)C1=C(C)N=C2SC(C(=O)OC)=CC(=O)N2C1c1ccc(F)cc1 (centres undefined)
25 | > 80 µM (inactive) | O=C(Cn1c2ccc(F)cc2c2nc3n(c(=O)c21)CCS3)Nc1ccc(Cl)cc1F
26 | 18.1 µM | CC1(C)C[C@H](O)[C@]2(CO)[C@H](O)C[C@]3(C)C(=CCC4[C@@]5(C)CC[C@H](O)C(C)(C)C5CC[C@]43C)[C@@H]2C1 (some centres undefined)
27 | > 80 µM (inactive) | Cc1cccc(NC(=O)/C(C#N)=C/c2cn(CC(=O)NCc3ccco3)c3ccccc23)c1C
28 | 43.2 µM (inactive) | CCOc1cc(/C=N\Nc2ccc([N+](=O)[O-])cc2)ccc1OCC(=O)Nc1ccc(C)c(C)c1
29 | 18.4 µM | COc1ccc(N2CCN(Cc3nc(N)nc(Nc4ccc(C)c(Cl)c4)n3)CC2)cc1
30 | > 80 µM (inactive) | COc1ccc(C2CC(c3c(-c4ccccc4)c4cc(Cl)ccc4[nH]c3=O)=NN2S(C)(=O)=O)cc1 (centres undefined)
31 | > 80 µM (inactive) | NC(=O)CC(NC(=O)Cc1cccc2ccccc12)c1ccc(NCCOc2ccccc2)c([N+](=O)[O-])c1 (centres undefined)
32 | > 80 µM (inactive) | Cc1ccc2nsnc2c1NC(=O)c1ccc(-c2cc(Cl)ccc2Cl)o1
33 | 27.8 µM (inactive) | COc1ccc2[nH]c3nc(SCc4nnc(-c5ccc(C)cc5)o4)nnc3c2c1
34 | > 80 µM (inactive) | CN(C)CCCN(C(=O)c1cc(-c2cccs2)nc2ccccc12)c1nc2ccc(F)cc2s1
35 | > 80 µM (inactive) | Cc1ccc(Nc2nc(NCCO)c3ccccc3n2)cc1C
36 | > 80 µM (inactive) | COc1cc2nc(N3CCN(c4cc(C)ccc4C)CC3)nc(N)c2cc1OC
37 | 9.17 µM | COc1ccc(C(CCNCc2ccc(F)cc2)c2ccc(F)cc2)cc1 (centres undefined)
38 | > 80 µM (inactive) | COc1ccc(OC)c(-c2nnc3n2N=C(c2ccc(OC)c(OC)c2)CS3)c1
39 | 16.4 µM | COc1ccccc1N=Cc1c(O)c2ccccc2oc1=O
40 | 21.8 µM (inactive) | CCOC(=O)c1c(NC(=O)CSc2nnc3c(n2)[nH]c2ccc(F)cc23)sc(C(C)=O)c1C
41 | 57.2 µM (inactive) | Cc1ccc2c(c1)C(=O)C(=O)N2Cc1ccc(Cl)cc1
42 | > 80 µM (inactive) | CSc1ccccc1NC(=O)c1cc(-c2cccnc2)nc2ccc(Br)cc12
43 | > 80 µM (inactive) | Cc1ccc2nc(Nc3nc(C)cc(-c4ccccc4)n3)[nH]c(=O)c2c1
44 | 19.6 µM | COc1cccc(C(=O)Oc2cc3c4c(c2)C(C)=CC(C)(C)N4C(=O)C3=O)c1

Row | EC50 | Compound
45 | > 80 µM (inactive) | CCCNC(=O)c1ccc2c(=O)c(O)c(-c3ccc(OC)cc3)[nH]c2c1
46 | > 80 µM (inactive) | COc1ccc(C(=O)/C=C/c2cccs2)c(OC(=O)c2cccc([N+](=O)[O-])c2)c1
47 | > 80 µM (inactive) | COc1ccc(OCc2n(CC(=O)OC3CC(C)CCC3C(C)C)c3ccccc3[n+]2C)cc1 (centres undefined)
48 | > 80 µM (inactive) | CCOC(=O)c1nnc(-c2ccc(C)cc2)nc1Sc1ccccc1Cl
49 | > 80 µM (inactive) | O=C(/C=C\c1cn(-c2ccccc2)nc1-c1ccccc1)Nc1nccs1
50 | > 80 µM (inactive) | O=S(=O)(c1ccc2nc(-c3ccccc3)[nH]c2c1)N1CCN(c2ccc(Cl)cc2)CC1
51 | 11.1 µM | O=C(Nc1ccc(Br)cc1)c1cc(-c2ccncc2)nc2ccccc12
52 | > 80 µM (inactive) | CC1(C)CC(=O)C(C=Nc2ccc(C(=O)c3ccccc3)cc2N=CC2=C(O)CC(C)(C)CC2=O)=C(O)C1
53 | > 80 µM (inactive) | COc1ccccc1Nc1nnc(SCC(=O)NC(=O)Nc2ccc3c(c2)OCCO3)s1
54 | > 80 µM (inactive) | COc1ccc(CCn2c(=S)[nH]c3cc(C(=O)NCc4ccco4)ccc3c2=O)cc1OC
55 | > 80 µM (inactive) | CC(C)=CCCC1(C)C=Cc2c(c(C)cc3c2[nH]c2cc(O)ccc23)O1 (centres undefined)
56 | > 80 µM (inactive) | CC1CN(S(=O)(=O)c2ccc(C(=O)Nc3nc(-c4cc5ccccc5o4)cs3)cc2)CC(C)O1 (centres undefined)
57 | > 80 µM (inactive) | O=C(Nc1nc(-c2ccc3ccccc3c2)cs1)c1ccc(N2C(=O)CCC2=O)cc1
58 | 28.3 µM (inactive) | Cc1ccc2oc(C(Cl)(Cl)Cl)cc(=O)c2c1
59 | 24.2 µM (inactive) | CCOc1ccc(C(=O)Nc2cc(-c3nc4ccccc4[nH]3)ccc2Cl)cc1[N+](=O)[O-]
60 | > 80 µM (inactive) | Cc1c(CCOC(=O)C23CC4(C)CC(C)(CC(C)(C4)C2)C3)sc[n+]1CC(=O)c1ccccc1
61 | 18.9 µM | CCc1ccc(OCCNc2cc(N3CCNC(C)C3)ccc2[N+](=O)[O-])cc1 (centres undefined)
62 | > 80 µM (inactive) | C/C(=N/NC(=O)c1ccc(Cl)s1)c1ccc(NC(=O)COc2ccc(Cl)cc2)cc1
63 | > 80 µM (inactive) | CCOC(=O)c1c(NC(=O)c2cc(-c3ccc(O)cc3)on2)sc(C(C)=O)c1C
64 | > 80 µM (inactive) | Cc1cccn2c(=O)c3cc(C(=O)NC4CCCCCC4)sc3nc12
